From patent USRE37101E, “Stabilized phosphate ester-based functional fluid compositions” (Solutia Inc., priority 1997, dated 2001)

What was measured:
[1] = fresh or as designated
[2] = tested on: rats; conditions: subchronic

SMILES | Independent Lab Cond. [1] [μMHO/cm] | NOEL ([2]; bladder hyperplasia, rats) [ppm] | Bladder Hyperplasia (finding) ([2]; in rats >5000 ppm)
CCCCOP(=O)(OCCCC)Oc1ccccc1 [DBPP, dibutyl phenyl phosphate, reference compound] | 0.008 |  | 
CC(C)COP(=O)(OCC(C)C)OCC(C)C [TIBP, triisobutyl phosphate] | 0.001 | 5000 | None observed
